Here are results for ten molecules from patent publication US11938125B2, “Use of Hsp70 as a regulator of enzymatic activity” (Zevra Denmark A/S, priority 2008, dated 2024).

Entries after “also recorded” stand apart in the source; their conditions may differ.

For data set [1], the system named is lysosomes of U-2-OS cells. Briefly: Lysosomal integrity upon photo-oxidation (acridine orange and blue light). The data set is classed as cell-based, human. As to conditions: for protection of lysosomes against photo-oxidation (lysosomal integrity): U-2-OS cells, recombinant protein 300 nM, 24 h. The procedure: Sub-confluent U-2-OS cells incubated with 2 μg/ml acridine orange for 15 min at 37° C. were washed, irradiated and analyzed in Hanks balanced salt solution complemented with 3% FCS. Cells for single cell imaging were selected from 8 pre-defined areas of each well in transmitted light-mode after which the same cells were immediately visualized and exposed to blue light from USH102 100 W mercury arc burner (Ushio electric) installed in a U-ULS100HG housing (Olympus) for 20 sec. Fluorescence microscopy was performed on Olympus IX-70 inverted microscope with a LCPlanF1×20 objective with NA=0.40. Loss of lysosomal pH gradient was quantified by counting the loss of intense red staining.
(§1) Assays for lysosomal integrity. Sub-confluent cells incubated with 2 μg/ml acridine orange for 15 min at 37° C. were washed, irradiated and analyzed in Hanks balanced salt solution complemented with 3% fetal calf serum. Cells for single cell imaging were selected from 8 pre-defined areas of each well in transmitted light-mode after which the same cells were immediately visualized and exposed to blue light from USH102 100 W mercury arc burner (Ushio electric) installed in a U-ULS100HG housing (Olympus) for 20 sec. Fluorescence microscopy was performed on Olympus IX-70 inverted microscope with a LCPlanF1×20 objective with NA=0.40. Loss of lysosomal pH gradient was quantified by counting the loss of intense red staining. A more elaborate method for assaying lysosomal integrity was developed to handle the larger lysosomal compartment of the various fibroblasts used in this study. Cells for single cell imaging were selected from 8 pre-defined areas of each well in transmitted light-mode after which the same cells were immediately and continuously exposed to 489 nm light from a 100 mW diode laser while laser scanning micrographs where captured every 330 ms on a Zeiss LSM LIVE DUO confocal system in two channels defined by bandpass filters for 495-555 nm (green) and LP650 nm (Red) light. The resulting timelapse movies where subsequently analysed by the integrated Zeiss LSM DUO software. The total and cytoplasmic (digitonin-extracted) cathepsin activities were measured in digitonin-treated samples using zFR-AFC (Enzyme System Products) probe as described in the art.

The subject of the next data set is HSPs, including Hsp70. As to conditions: cited from earlier work.
In data set [2] the test system is lysosomes of NPDA patient fibroblasts. In words: Lysosomal stability of NPDA fibroblasts (photo-oxidation, live single-cell imaging). Type of data set: cell-based, human. As to conditions: NPDA Götz cells, 40 mM. The procedure: as §1
A further data set relates to NPDA fibroblasts. In words: Lysosomal area of confocal cross sections, NPDA fibroblasts. Type of data set: cell-based, human. Conditions: for pathology measured by lysosomal cross-sectional area: NPDA Götz cells, 40 mM. From the text: Immunodetection and microscopy. Primary antibodies used included mouse monoclonal antibodies against Hsp70 (2H9; kindly provided by Boris Margulis, Russian Academy of Sciences, St. Petersburg, Russia), glyceraldehyde-3-phosphate dehydrogenase (GAPDH; Biogenesis), BMP (6C4), lysosomal integral membrane protein-1 (H5C6; developed by J. Thomas August and James E. K. Hildreth and obtained from the Developmental Studies Hybridoma Bank developed under the auspices of the NICHD and maintained by The University of Iowa, Department of Biological Sciences, Iowa City, USA). Proteins separated by 10% SDS-PAGE and transferred to a nitrocellulose membrane were detected by using indicated primary antibodies, appropriate peroxidase-conjugated secondary antibodies from Dako, ECL Western blotting reagents (Amersham), and Luminescent Image Reader (LAS-1000Plus, Fujifilm). For immunocytochemistry Alexa […] or Alexa Fluor®-488-conjugated secondary antibodies were used. Lysotracker Red® was used for live visualization of the lysosomal compartment. Fluorescence images were taken using a Zeiss Axiovert 100M laser scanning microscope. Lysotracker quantification and timelapse movies for lysosomal integrity were done on a Zeiss LSM LIVE DUO system.

The next data set deals with Hsp70. In words: Hsp70 protein expression by western blotting in NPDA cells. Type of data set: cell-based, human. As to conditions: NPDA Götz cells, 0, 20, 30, 35, 40, 45 mM. As to the method: It is shown in Examples 2 and 3 that Hsp70 has a lysosome stabilizing effect via an interaction with BMP. In order to evaluate if this effect is also observed when exposing cells to a chemical Hsp70 inducer, Niemann-Pick Type A (NPDA) patient fibroblasts were treated with the small molecule Hsp70 inducer; Benzyl Alcohol (BA). First, NPDA cells were treated with increasing doses of BA (0, 20, 30, 35, 40, 45 mM), lysed, and analysed by western blotting. The same amount of protein was loaded in each well. […] Next, the stability of NPDA Götz lysosomes after treatment with 40 mM BA was evaluated, using the same methods as described in Example 2. […] Finally, the lysosomal cross-sectional area in NPDA Götz cells after treatment with 40 mM BA was evaluated, using the same methods as described in Example 2.
Background: Immunoblotting shows a protein as a band on a membrane.

Data set [3] concerns U-2-OS osteosarcoma cells. In words: Cisplatin-induced apoptosis-like cell death (Hoechst 33342). Type of data set: cell-based, human. As to conditions: for protection of cells against cisplatin-induced lysosomal cell death: recombinant protein 300 nM 24 h, 25 μM cisplatin 24 h. The procedure:
Apoptosis-like cell death was assessed by staining the cells with 0.05 μg/ml Hoechst 33342 (Molecular Probes) and counting cells with condensed nuclei in an inverted Olympus IX-70 fluorescent Microscope (Filter U-MWU 330-385 nm). For each experiment a minimum of eight randomly chosen areas were counted.
Assays for cell viability. Cell density was assessed by the 3-(4,5-dimethylthiazole-2-y)-2,5-[…] (MTT, SIGMA-Aldrich) reduction assay essentially as described in the art. Apoptosis-like cell death was assessed by staining the cells with 0.05 μg/ml Hoechst 33342 (Molecular Probes) and counting cells with condensed nuclei in an inverted Olympus IX-70 fluorescent Microscope (Filter U-MWU 330-385 nm). For each experiment a minimum of eight randomly chosen areas were counted.

A further data set concerns POPC/BMP liposomes. Briefly: Tryptophan fluorescence shift upon docking into POPC/BMP liposomes. The data set is classed as binding. As to conditions: pH 6.0. As to the method: The tryptophan fluorescence spectra (RFI) and liposome 900 light scattering (RSI) were analyzed in a HEPES buffer (20 mM HEPES, 0.1 mM EDTA, pH 7.4 or 6.0 as indicated) employing LUVs consisting of indicated lipids essentially as described previously. For the RFI, LUVs were added in 10 μM aliquots and spectra recorded after a 20 min stabilization period. For the RSI, recombinant proteins were added in 0.12 nmol aliquots.
Tryptophan fluorescence spectra and liposome 90° light scattering. The tryptophan fluorescence spectra (RFI) and liposome 900 light scattering (RSI) were analyzed in a HEPES buffer (20 mM HEPES, 0.1 mM EDTA, pH 7.4 or 6.0 as indicated) employing LUVs consisting of indicated lipids essentially as described in the art. For the RFI, LUVs were added in 10 μM aliquots and spectra recorded after a 20 min stabilization period. For the RSI, recombinant proteins were added in 0.12 nmol aliquots.

The test system of a further data set is BMP. In words: BIAcore surface plasmon resonance with immobilized BMP-containing LUVs. Type of data set: binding. Conditions: pH 4.5, L1 sensor chip. As to the method: (§2) For preparation of LUVs a lipid mixture consisting of 10 mol % sphingomyelin, 50 mol % phosphatidylcholine, 20 mol % cholesterol and 20 mol % BMP dissolved in organic solvents, was dried under a stream of argon and rehydrated in Tris/HCl buffer (pH 7.4) (Kolzer et al., 2004). The mixture was freeze-thawed nine times in liquid nitrogen and then in an incubator at 37° C. After ultrasound bath for 15 min the mixture was passed 21 times through a polycarbonate membrane with a pore diameter of 100 nm. Surface plasmon resonance measurements were performed using a BIAcore 2000 system at 25° C. LUVs (total lipid concentration 0.1 mM) were immobilized on the surface of a L1 sensor chip (BIAcore) in PBS (loading buffer). The running buffer used was sodium acetate buffer (50 mM, pH 4.5). As a control, acid sphingomyelinase (0.2 μM, 60 μl in running buffer) was injected directly on the liposome surface. Response units between 4100 RU-5250RU were obtained. The protein of interest was injected in running buffer at a flow rate of 20 μl/min at the concentrations indicated. After injection a dissociation phase of 10 min was appended.
as §2, with “Surface Plasmon Resonance (BIAcore). For” for “For”, “7.4).” for “7.4) (Kolzer et al., 2004).”, “The protein of interest was injected in running buffer at a flow rate of 20 μl/min at the concentrations indicated. After injection a dissociation phase of 10 min was appended.” left out
On the technique in general: Surface plasmon resonance follows binding to a sensor surface in real time, without labels.

The nature of data set [4]: Folding and chaperone function of rHsp70 mutant (circular dichroism, luciferase folding, ATP hydrolysis). Type of data set: biochemical. For orientation: CD spectra are sensitive to the conformation of chiral molecules.

Turning to “5′-GCCAUGACGAAAGACAACAAUCUGU-3′ (other strand not given here) [Hsp70 siRNA, siRNA targeting the two genes encoding Hsp70, reference compound]”, the “sensitization of lysosomes to photo-oxidation by siRNA” value in data set [1] (U-2-OS cells, siRNA 48 h; listed as siRNA) specific for Hsp70) was “sensitized lysosomes of U-2-OS cells to photo-oxidation; also recorded: sensitized the lysosomes to photo-oxidation”.
As to `[O-][n+]1cccc(/C(Cl)=N/OC[C@H](O)CN2CCCCC2)c1` [Arimoclomol], the “induction or co-induction of HSPs / heat shock response” value in the data set with HSPs, including Hsp70 is “interacts with and amplifies the heat shock response”.
On to `[O-][n+]1cccc(C(Cl)=NOC[C@H](O)CN2CCCCC2)c1` [BRX-345], for which the “induction or co-induction of HSPs / heat shock response” value in the data set on HSPs, including Hsp70 is given as “somewhat lesser ability to induce HSPs”.
On to `OCc1ccccc1` [Benzyl Alcohol], for which the stability of lysosomes result in [2] is “Increased stability of NPDA Götz lysosomes”; in data set [2] (listed as BA), “increased lysosomal stability”. Moreover, the “pathology measured by lysosomal cross-sectional area” value in the data set with NPDA fibroblasts is given as “Decreased pathology”; in the data set with NPDA fibroblasts (listed as BA), “decreased pathology”. In addition, the Hsp70 protein expression result with Hsp70 is reported as “Induction of Hsp70 in NPDA Götz by Benzyl alcohol in a dose-dependent manner”; with Hsp70 (listed as BA), “induced Hsp70 expression in a dose-dependent manner”.
For `O=C(O)/C=C\C(=O)O.OC(CON=C(Cl)c1cccnc1)CN1CCCCC1` (centres unmarked) [Bimoclomol, [2-hydroxy-3-(1-piperidinyl)propoxy]-3-pyridine-carboximidoyl-chloride maleate], the “induction or co-induction of HSPs / heat shock response” value in the data set with HSPs, including Hsp70 is listed as “capability of Hsp70 co-induction in the absence of unfolded proteins”.
For `N.N.[Cl][Pt][Cl]` [cisplatin, reference compound], the lysosomal membrane permeabilization entry in data set [3] (U-2-OS cells) is listed as “induces an early lysosomal membrane permeabilization”.
With “Hsc70: recombinant Hsc70, 86% amino acid sequence homology with Hsp70”, in [1], the “protection of lysosomes against photo-oxidation (lysosomal integrity)” value (“protection of lysosomes” below) is given as “no protection; also recorded: no lysosomal stabilization”.
On the same count and under the same terms, as for “Hsp70-2: recombinant Hsp70-2, 84% amino acid sequence homology with Hsp70”, the entry is “no protection; also recorded: no lysosomal stabilization”.
As to “rHsp70-W90F: rHsp70 point mutant, tryptophan 90 substituted with phenylalanine”, the “protection of lysosomes” value in data set [1] was “completely lost its ability to protect the lysosomal membranes against photo-oxidation”. For the same molecule, the “relative peak fluorescence intensity (tryptophan fluorescence shift)” value with POPC/BMP liposomes is on record as “reduction of the signal”. For the same molecule, in the data set on BMP, the “interaction with BMP-containing LUVs (BIAcore)” value is “dramatically decreased; also recorded: specifically abolished the interaction between rHsp70 and BMP”. Also, in data set [3], the “protection of cells against cisplatin-induced lysosomal cell death” value was “completely lost its ability”. The “lysosomal area / volume of the lysosomal compartment” value with NPDA fibroblasts (NPDA fibroblasts, 24 h, 300 nM rHsp70 or W90F, 150 nM rASM or combination) is listed as “effect comparable to control cells”. For the same molecule, the “luciferase folding and ATP hydrolysis” value in data set [4] was “capable of folding luciferase and hydrolyzing ATP”.
Take “rHsp70-W580F: rHsp70 point mutant, tryptophan 580 substituted with phenylalanine”: the “protection of lysosomes” value in data set [1] was “same efficacy as the wild-type protein; also recorded: same protective effect as the wild-type protein”. The “relative peak fluorescence intensity (tryptophan fluorescence shift)” value with POPC/BMP liposomes is on record as “unchanged signal”. The “interaction with BMP-containing LUVs (BIAcore)” value with BMP is reported as “essentially the same interaction profile as rHsp70”. The “protection of cells against cisplatin-induced lysosomal cell death” value in data set [3] was “same efficacy as the wild-type protein; also recorded: same protective effect as the wild-type protein”.
